# According to patent US20130252816A1, “HERBICIDAL COMPOSITION AND USE THEREOF” (Syngenta Crop Protection LLC, priority 2010, published 2013):
# Key:
# [1] = tested on: treated plants; details: after treatment, glyphosate per se; cited from earlier work
# [2] = tested on: Stellaria media; test: Example 2: alcohol ethoxylate adjuvants without glyphosate, visual % damage, tracksprayer 300 l/ha; type: in vivo
# Excerpt: (§1) The effect of different types of alcohol ethoxylate (branched—Genapol X-series, and unbranched—Genapol O-series, differing degrees of ethoxylation, see Table 3 below for more details), on unwanted vegetation (broadleaf weed and grass species), in the absence of glyphosate, was investigated and compared to untreated (water only) control weeds.
# (§2) Troughs (measuring 16 cm by 13 cm by 5 cm) were filled with local field soil. Seeds of Veronica persica, Stellaria media, Trifolium repens and Poa annua were sown 24 days before application of test samples. Plants were grown in the glasshouse at 18 to 20° C. and 60% relative humidity. Application of alcohol ethoxylate test samples was carried out using a tracksprayer, spraying at a rate of 300 l/ha. Plants were kept in glasshouse and visual assessment of the estimated percentage damage to the plant was carried out 1, 7, and 14 days from application.
# (§3) Damage was assessed as wilting, desiccation or any other kind of visual injury in comparison to the untreated control (water only).
# [3] = tested on: Poa annua; test: as above; type: in vivo
# Excerpt: as §1, §2, §3
# [4] = tested on: Trifolium repens; test: as above; type: in vivo
# Excerpt: as §1, §2, §3
# [5] = tested on: Veronica persica; test: as above; type: in vivo
# Excerpt: as §1, §2, §3
# [6] = tested on: broadleaf weed and grass species; test: Example 2: overall statement on alcohol ethoxylates without glyphosate; type: in vivo; details: absence of glyphosate
# Excerpt: as §1, §2, §3
# [7] = tested on: Taraxacum officinale; test: Example 1: adjuvants alone, visual % damage, pots in glasshouse; type: in vivo
# Experimental: (§4) The effect of different adjuvants (see Table 1 below) on the growth of broadleaf weed and grass species was investigated and compared to untreated (water only) control weeds.
# (§5) Plates, each with 48 pots measuring 2.7 cm diameter and 5 cm deep, were filled with TKS1 growing media (Floragard, Germany). Seeds of Taraxacum officinale, Stellaria media or Poa annua were sown on the surface (10 to 20 per pot). Plants were grown in glasshouse at a temperature of 18 to 20° C. and at 60% relative humidity.
# (§6) Plants were treated 15 (Stellaria, Poa) and 34 (Taraxacum) days after sowing with 60 μl of a 1.25, 2.5, 5 and 10% (w/v) solution of adjuvant using a hand airbrush.
# (§7) Visual assessment of the percentage damage to the plant was carried out 1 day and 6 days from application.
# as §3
# [8] = tested on: Stellaria media; test: as above; type: in vivo
# Experimental: as §4, §5, §6, §7, §3
# [9] = tested on: Poa annua; test: as above; type: in vivo
# Experimental: as §4, §5, §6, §7, §3
# [10] = tested on: broadleaf weeds and grasses; test: Example 1: overall statement on adjuvants alone; type: in vivo; details: 1 and 6 days after treatment, adjuvant alone
# Experimental: as §4, §5, §6, §7, §3
molecule,measurement,setting,value
"O=C(O)CNCP(=O)(O)O [glyphosate, N-(phosphonomethyl)glycine]",time until visual symptoms of phytotoxicity appear,[1],7 to 10 days
Iso-tridecyl alcohol polyglycol ether with 8 moles of ethoxylation [GenapolX080],mean % damage 1 daa Stellaria media,[2]; adjuvant 1% w/v,10%
same,mean % damage 7 daa Stellaria media,[2]; adjuvant 1% w/v,10%
same,mean % damage 14 daa Stellaria media,[2]; adjuvant 1% w/v,5%
same,mean % damage 1 daa Stellaria media,[2]; adjuvant 1.5% w/v,10%
same,mean % damage 7 daa Stellaria media,[2]; adjuvant 1.5% w/v,10%
same,mean % damage 14 daa Stellaria media,[2]; adjuvant 1.5% w/v,0%
same,mean % damage 1 daa Stellaria media,[2]; adjuvant 2% w/v,20%
same,mean % damage 7 daa Stellaria media,[2]; adjuvant 2% w/v,20%
same,mean % damage 14 daa Stellaria media,[2]; adjuvant 2% w/v,10%
same,mean % damage 1 daa Stellaria media,[2]; adjuvant 2.5% w/v,30%
same,mean % damage 7 daa Stellaria media,[2]; adjuvant 2.5% w/v,30%
same,mean % damage 14 daa Stellaria media,[2]; adjuvant 2.5% w/v,10%
same,mean % damage 1 daa Poa annua,[3]; adjuvant 1% w/v,0%
same,mean % damage 7 daa Poa annua,[3]; adjuvant 1% w/v,10%
same,mean % damage 14 daa Poa annua,[3]; adjuvant 1% w/v,0%
same,mean % damage 1 daa Poa annua,[3]; adjuvant 1.5% w/v,10%
same,mean % damage 7 daa Poa annua,[3]; adjuvant 1.5% w/v,30%
same,mean % damage 14 daa Poa annua,[3]; adjuvant 1.5% w/v,5%
same,mean % damage 1 daa Poa annua,[3]; adjuvant 2% w/v,40%
same,mean % damage 7 daa Poa annua,[3]; adjuvant 2% w/v,50%
same,mean % damage 14 daa Poa annua,[3]; adjuvant 2% w/v,10%
same,mean % damage 1 daa Poa annua,[3]; adjuvant 2.5% w/v,40%
same,mean % damage 7 daa Poa annua,[3]; adjuvant 2.5% w/v,50%
same,mean % damage 14 daa Poa annua,[3]; adjuvant 2.5% w/v,20%
same,mean % damage 1 daa Trifolium repens,[4]; adjuvant 1% w/v,20%
same,mean % damage 7 daa Trifolium repens,[4]; adjuvant 1% w/v,20%
same,mean % damage 14 daa Trifolium repens,[4]; adjuvant 1% w/v,15%
same,mean % damage 1 daa Trifolium repens,[4]; adjuvant 1.5% w/v,50%
same,mean % damage 7 daa Trifolium repens,[4]; adjuvant 1.5% w/v,60%
same,mean % damage 14 daa Trifolium repens,[4]; adjuvant 1.5% w/v,10%
same,mean % damage 1 daa Trifolium repens,[4]; adjuvant 2% w/v,50%
same,mean % damage 7 daa Trifolium repens,[4]; adjuvant 2% w/v,60%
same,mean % damage 14 daa Trifolium repens,[4]; adjuvant 2% w/v,15%
same,mean % damage 1 daa Trifolium repens,[4]; adjuvant 2.5% w/v,50%
same,mean % damage 7 daa Trifolium repens,[4]; adjuvant 2.5% w/v,60%
same,mean % damage 14 daa Trifolium repens,[4]; adjuvant 2.5% w/v,10%
same,mean % damage 1 daa Veronica persica,[5]; adjuvant 1% w/v,5%
same,mean % damage 7 daa Veronica persica,[5]; adjuvant 1% w/v,5%
same,mean % damage 14 daa Veronica persica,[5]; adjuvant 1% w/v,5%
same,mean % damage 1 daa Veronica persica,[5]; adjuvant 1.5% w/v,10%
same,mean % damage 7 daa Veronica persica,[5]; adjuvant 1.5% w/v,20%
same,mean % damage 14 daa Veronica persica,[5]; adjuvant 1.5% w/v,20%
same,mean % damage 1 daa Veronica persica,[5]; adjuvant 2% w/v,20%
same,mean % damage 7 daa Veronica persica,[5]; adjuvant 2% w/v,10%
same,mean % damage 14 daa Veronica persica,[5]; adjuvant 2% w/v,20%
same,mean % damage 1 daa Veronica persica,[5]; adjuvant 2.5% w/v,30%
same,mean % damage 7 daa Veronica persica,[5]; adjuvant 2.5% w/v,40%
same,mean % damage 14 daa Veronica persica,[5]; adjuvant 2.5% w/v,40%
same,course of damage over time (recovery),[6],the level of damage decreases from day 14 onwards
Iso-tridecyl alcohol polyglycol ether with 15 Moles of ethoxylation [GenapolX-150],avg % damage 1 DAA Taraxacum officinale,[7]; adjuvant 1.25% w/v,10%
same,avg % damage 6 DAA Taraxacum officinale,[7]; adjuvant 1.25% w/v,5%
same,avg % damage 1 DAA Taraxacum officinale,[7]; adjuvant 2.5% w/v,10%
same,avg % damage 6 DAA Taraxacum officinale,[7]; adjuvant 2.5% w/v,0%
same,avg % damage 1 DAA Taraxacum officinale,[7]; adjuvant 5% w/v,20%
same,avg % damage 6 DAA Taraxacum officinale,[7]; adjuvant 5% w/v,10%
same,avg % damage 1 DAA Taraxacum officinale,[7]; adjuvant 10% w/v,10%
same,avg % damage 6 DAA Taraxacum officinale,[7]; adjuvant 10% w/v,0%
same,avg % damage 1 DAA Stellaria media,[8]; adjuvant 1.25% w/v,0%
same,avg % damage 6 DAA Stellaria media,[8]; adjuvant 1.25% w/v,10%
same,avg % damage 1 DAA Stellaria media,[8]; adjuvant 2.5% w/v,0%
same,avg % damage 6 DAA Stellaria media,[8]; adjuvant 2.5% w/v,10%
same,avg % damage 1 DAA Stellaria media,[8]; adjuvant 5% w/v,15%
same,avg % damage 6 DAA Stellaria media,[8]; adjuvant 5% w/v,15%
same,avg % damage 1 DAA Stellaria media,[8]; adjuvant 10% w/v,25%
same,avg % damage 6 DAA Stellaria media,[8]; adjuvant 10% w/v,25%
same,avg % damage 1 DAA Poa annua,[9]; adjuvant 1.25% w/v,0%
same,avg % damage 6 DAA Poa annua,[9]; adjuvant 1.25% w/v,10%
same,avg % damage 1 DAA Poa annua,[9]; adjuvant 2.5% w/v,0%
same,avg % damage 6 DAA Poa annua,[9]; adjuvant 2.5% w/v,5%
same,avg % damage 1 DAA Poa annua,[9]; adjuvant 5% w/v,0%
same,avg % damage 6 DAA Poa annua,[9]; adjuvant 5% w/v,10%
same,avg % damage 1 DAA Poa annua,[9]; adjuvant 10% w/v,0%
same,avg % damage 6 DAA Poa annua,[9]; adjuvant 10% w/v,10%
same,visual symptoms of phytotoxicity,[10],comparatively high level of visual symptoms of phytoxicity
